From US5021413A (priority 1988, dated 1991)
Where a name gives a salt, the structure may show the parent alone.

Legend:
[1] = tested on: p-phenylquinone-induced writhing in mice; test: animal or person; type: in vivo, mouse (male ddY mice); details: sc; for ED50: Mus musculus, read-out: Analgesic effect, phenylquinone-induced writhing, ED50; for Analgesic effect, phenylquinone-induced writhing at 320 μg/kg (analgesic-effective animals/all animals): mouse, in vivo
κ-receptors = target: T1, κ-receptors (Cavia porcellus, UniProt P41144); test: biochemical; type: binding, guinea pig (male Hartley)
T1 construct: A raw preparation from brain membrane was made; tissue Japan SLC; host or cells: guinea pig whole brain without cerebellum, crude membranes
T1 sequence (P41144 whole entry): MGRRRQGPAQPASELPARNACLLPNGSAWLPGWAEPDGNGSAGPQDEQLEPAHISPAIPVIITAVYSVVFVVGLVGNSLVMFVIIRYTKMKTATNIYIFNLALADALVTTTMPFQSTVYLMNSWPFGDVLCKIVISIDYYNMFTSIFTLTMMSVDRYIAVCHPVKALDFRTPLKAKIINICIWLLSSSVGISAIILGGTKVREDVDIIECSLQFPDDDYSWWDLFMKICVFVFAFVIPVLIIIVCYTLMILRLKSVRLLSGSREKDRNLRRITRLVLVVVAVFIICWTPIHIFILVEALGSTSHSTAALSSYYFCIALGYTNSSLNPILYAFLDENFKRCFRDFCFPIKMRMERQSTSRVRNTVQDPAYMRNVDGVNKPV

μ-receptors = target: T2, μ-receptors (Cavia porcellus, UniProt A0ACM8Q262); set-up: species or system guinea pig (male Hartley); details: read-out: Binding to opioid receptors, μ (IC50)
T2 construct: [3H]DAGO (DAMGO) displacement
T2 sequence (A0ACM8Q262 1-400): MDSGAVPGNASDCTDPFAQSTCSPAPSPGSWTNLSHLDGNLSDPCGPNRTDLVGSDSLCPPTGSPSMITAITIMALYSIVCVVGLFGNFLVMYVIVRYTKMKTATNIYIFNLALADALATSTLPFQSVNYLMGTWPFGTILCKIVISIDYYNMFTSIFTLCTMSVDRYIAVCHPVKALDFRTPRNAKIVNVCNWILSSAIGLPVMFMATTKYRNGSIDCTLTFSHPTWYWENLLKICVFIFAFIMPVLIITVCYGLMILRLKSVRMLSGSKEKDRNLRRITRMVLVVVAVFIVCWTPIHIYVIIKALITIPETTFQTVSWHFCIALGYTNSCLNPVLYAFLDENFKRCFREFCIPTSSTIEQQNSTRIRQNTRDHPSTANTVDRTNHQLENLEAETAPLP

Q: Which results are given for `O=C1C[C@@H](C(=O)N2CCCC[C@H]2CN2CCCC2)c2cc(Cl)c(Cl)cc21` [Example 2-E2, 1-[(1R)-5,6-dichloro-3-oxoindan-1-carbonyl]-(2S)-2-(pyrrolidin-1-ylmethyl)piperidine]?
A: ED50 [1]: 320 µg/kg; IC50 (κ-receptors): 258 nM

Q: How did the ED50 [1] turn out when `O=C1CC(C(=O)N2CCCCC2CN2CCCC2)c2cc(Cl)c(Cl)cc21` (stereo not shown) [Example 1, 1-(5,6-dichloro-3-oxoindan-1-carbonyl)-2-(pyrrolidin-1-yl-methyl)piperidinehydrochloride] was run?
A: 6.2 µg/kg

Q: What about the IC50 (κ-receptors) of the same compound?
A: 1.75 nM

Q: And the IC50 (μ-receptors)?
A: 1070 nM

Q: For `O=C1C[C@H](C(=O)N2CCCC[C@H]2CN2CCCC2)c2cc(Cl)c(Cl)cc21` (relative stereo) [Example 4-D1, 1-[(1S*)-5,6-dichloro-3-oxoindan-1-carbonyl)-(2S*)-2-pyrrolidin-1-ylmethyl)piperidine], which ED50 [1] is on record?
A: 3.43 µg/kg

Q: What about the IC50 (κ-receptors) of the same compound?
A: 1.4 nM

Q: And the IC50 (μ-receptors)?
A: 531 nM

Q: For `O=C1C[C@H](C(=O)N2CCCC[C@H]2CN2CCCC2)c2cc(Cl)c(Cl)cc21` [Example 2-E1, 1-[(1S)-5,6-dichloro-3-oxoindan-1-carbonyl]-(2S)-2-(pyrrolidin-1-ylmethyl)piperidine], which ED50 [1] is on record?
A: 1.73 µg/kg

Q: And the IC50 (κ-receptors)?
A: 0.9 nM

Q: What about the IC50 (μ-receptors) of the same compound?
A: 232 nM

Q: `O=C([C@H]1CCc2cc(Cl)c(Cl)cc21)N1CCSC[C@@H]1CN1CCCC1` (relative stereo) [Example 41-D1, 4-[(1S*)-5,6-dichloroindan-1-carbonyl]-(3S*)-3-(pyrrolidin-1-ylmethyl)thiomorpholine] was tested. Which ED50 [1] did it give?
A: 1.3 µg/kg

Q: And the IC50 (κ-receptors)?
A: 0.67 nM

Q: What about the IC50 (μ-receptors) of the same compound?
A: 698 nM

Q: Which results are given for `O=C(Cc1ccc(Cl)c(Cl)c1)N1CCSCC1CN1CCCC1` (stereo not shown) [Example 17, 4-(3,4-dichlorophenylacetyl)-3-(pyrrolidin-1-ylmethyl)thiomorpholine hydrochloride]?
A: Analgesic effect, phenylquinone-induced writhing at 320 μg/kg (analgesic-effective animals/all animals) [1]: 5/5; IC50 (κ-receptors): 1.1 nM

Q: For `O=C1CC(C(=O)N2CCSCC2CN2CCCC2)c2cc(Cl)c(Cl)cc21` (stereo not shown) [Example 36, 4-(5,6-dichloro-3-oxoindan-1-carbonyl)-3-(pyrrolidin-1-ylmethyl)thiomorpholine hydrochloride], which ED50 [1] is on record?
A: 3.4 µg/kg

Q: And the IC50 (κ-receptors)?
A: 2.4 nM

Q: And the IC50 (μ-receptors)?
A: 1140 nM

Q: Which “Analgesic effect, phenylquinone-induced writhing at 320 μg/kg (analgesic-effective animals/all animals)” value [1] does the source give for `CN1CC[C@]23c4c5ccc(O)c4O[C@H]2[C@@H](O)C=C[C@H]3[C@H]1C5.Cl` [Morphine HCl, reference compound] here?
A: 2/5

Q: For `O=C1C[C@@H](C(=O)N2CCCC[C@H]2CN2CCCC2)c2cc(Cl)c(Cl)cc21` (relative stereo) [Example 4-D2, 1-[(1R*)-5,6-dichloro-3-oxoindan-1-carbonyl](2S*)-2-(pyrrolidin-1-ylmethyl)piperidine], which ED50 [1] is on record?
A: 270 µg/kg

Q: And the IC50 (κ-receptors)?
A: 366 nM
